Laboratory results: ChEMBL document CHEMBL3885881, “DrugMatrix”

Organism: Rattus norvegicus
Experiment: DrugMatrix - Regimen: Daily Repeat
Assay type: toxicity, organism-based, Sprague-Dawley
Design: regimen Daily Repeat, gender Male, age 6-8 weeks
Conditions: in vivo, po, 4000 mg/kg, route oral GAVAGE, dose level High, vehicle 100 % WATER; for BASOPHIL / EOSINOPHIL / ERYTHROCYTE COUNT / HEMATOCRIT / HEMOGLOBIN / LEUKOCYTE COUNT / LYMPHOCYTE / MEAN CORPUSCULAR HEMOGLOBIN / MEAN CORPUSCULAR HEMOGLOBIN CONCENTRATION / MEAN CORPUSCULAR VOLUME / MONOCYTE / NEUTROPHIL / PLATELET COUNT: tissue Blood; for ALANINE AMINOTRANSFERASE / ALBUMIN / ALKALINE PHOSPHATASE / ASPARTATE AMINOTRANSFERASE / BLOOD UREA NITROGEN / CARBON DIOXIDE / CHLORIDE / CHOLESTEROL / CREATINE PHOSPHOKINASE / CREATININE / GLUCOSE / LACTATE DEHYDROGENASE / LIPASE / PHOSPHORUS / POTASSIUM / SODIUM / TOTAL BILIRUBIN / TOTAL PROTEIN / URIC ACID: tissue Plasma

CC(C)=O [ACETONE]
BASOPHIL (96 h, time 4 day): 0.37% | EOSINOPHIL (96 h, time 4 day): 0.2% | ERYTHROCYTE COUNT (96 h, time 4 day): 7.37 x10E6/uL | HEMATOCRIT (96 h, time 4 day): 47.5% | HEMOGLOBIN (96 h, time 4 day): 15.37 G/DL | LEUKOCYTE COUNT (96 h, time 4 day): 10.01 x10E3/uL | LYMPHOCYTE (96 h, time 4 day): 77.97% | MEAN CORPUSCULAR HEMOGLOBIN (96 h, time 4 day): 20.83 pg | MEAN CORPUSCULAR HEMOGLOBIN CONCENTRATION (96 h, time 4 day): 32.37 G/DL | MEAN CORPUSCULAR VOLUME (96 h, time 4 day): 64.47 fL | MONOCYTE (96 h, time 4 day): 2.73% | NEUTROPHIL (96 h, time 4 day): 18.23% | PLATELET COUNT (96 h, time 4 day): 1486.67 x10E3/uL | ALANINE AMINOTRANSFERASE (96 h, time 4 day): 47 u/L | ALBUMIN (96 h, time 4 day): 3.73 G/DL | ALKALINE PHOSPHATASE (96 h, time 4 day): 277.67 u/L | ASPARTATE AMINOTRANSFERASE (96 h, time 4 day): 87.33 u/L | BLOOD UREA NITROGEN (96 h, time 4 day): 12.67 mg/dL | CARBON DIOXIDE (96 h, time 4 day): 30.67 mmol/L | CHLORIDE (96 h, time 4 day): 103.33 MEQ/L | CHOLESTEROL (96 h, time 4 day): 117.33 mg/dL | CREATINE PHOSPHOKINASE (96 h, time 4 day): 390.33 u/L | CREATININE (96 h, time 4 day): 0.53 mg/dL | GLUCOSE (96 h, time 4 day): 176.33 mg/dL | LACTATE DEHYDROGENASE (96 h, time 4 day): 159 u/L | LIPASE (96 h, time 4 day): 27 u/L | PHOSPHORUS (96 h, time 4 day): 11 mg/dL | POTASSIUM (96 h, time 4 day): 5.6 MEQ/L | SODIUM (96 h, time 4 day): 149 MEQ/L | TOTAL BILIRUBIN (96 h, time 4 day): 0.27 mg/dL | TOTAL PROTEIN (96 h, time 4 day): 6.37 G/DL | URIC ACID (96 h, time 4 day): 1.23 mg/dL | BASOPHIL ([…], time 6 day): 0.23% | EOSINOPHIL ([…], time 6 day): 0.27% | ERYTHROCYTE COUNT ([…], time 6 day): 7.31 x10E6/uL | HEMATOCRIT ([…], time 6 day): 47.27% | HEMOGLOBIN ([…], time 6 day): 14.77 G/DL | LEUKOCYTE COUNT ([…], time 6 day): 10.16 x10E3/uL | LYMPHOCYTE ([…], time 6 day): 86.07% | MEAN CORPUSCULAR HEMOGLOBIN ([…], time 6 day): 20.17 pg | MEAN CORPUSCULAR HEMOGLOBIN CONCENTRATION ([…], time 6 day): 31.23 G/DL | MEAN CORPUSCULAR VOLUME ([…], time 6 day): 64.67 fL | MONOCYTE ([…], time 6 day): 2.77% | NEUTROPHIL ([…], time 6 day): 9.93% | PLATELET COUNT ([…], time 6 day): 1168.67 x10E3/uL | BASOPHIL ([…], time 14 day): 0.3% | EOSINOPHIL ([…], time 14 day): 0.38% | ERYTHROCYTE COUNT ([…], time 14 day): 8.11 x10E6/uL | HEMATOCRIT ([…], time 14 day): 55.22% | HEMOGLOBIN ([…], time 14 day): 16.28 G/DL | LEUKOCYTE COUNT ([…], time 14 day): 7.38 x10E3/uL | LYMPHOCYTE ([…], time 14 day): 78.4% | MEAN CORPUSCULAR HEMOGLOBIN ([…], time 14 day): 20.06 pg | MEAN CORPUSCULAR HEMOGLOBIN CONCENTRATION ([…], time 14 day): 29.48 G/DL | MEAN CORPUSCULAR VOLUME ([…], time 14 day): 68.1 fL | MONOCYTE ([…], time 14 day): 2.1% | NEUTROPHIL ([…], time 14 day): 18.48% | PLATELET COUNT ([…], time 14 day): 1123.2 x10E3/uL | ALANINE AMINOTRANSFERASE ([…], time 6 day): 59.33 u/L | ALBUMIN ([…], time 6 day): 3.83 G/DL | ALKALINE PHOSPHATASE ([…], time 6 day): 274 u/L | ASPARTATE AMINOTRANSFERASE ([…], time 6 day): 91.33 u/L | BLOOD UREA NITROGEN ([…], time 6 day): 17.33 mg/dL | CARBON DIOXIDE ([…], time 6 day): 27.67 mmol/L | CHLORIDE ([…], time 6 day): 107 MEQ/L | CHOLESTEROL ([…], time 6 day): 112 mg/dL | CREATINE PHOSPHOKINASE ([…], time 6 day): 187.67 u/L | CREATININE ([…], time 6 day): 0.37 mg/dL | GLUCOSE ([…], time 6 day): 172.33 mg/dL | LACTATE DEHYDROGENASE ([…], time 6 day): 78 u/L | LIPASE ([…], time 6 day): 11.33 u/L | PHOSPHORUS ([…], time 6 day): 12.07 mg/dL | POTASSIUM ([…], time 6 day): 6.83 MEQ/L | SODIUM ([…], time 6 day): 152 MEQ/L | TOTAL BILIRUBIN ([…], time 6 day): 0.33 mg/dL | TOTAL PROTEIN ([…], time 6 day): 6.57 G/DL | URIC ACID ([…], time 6 day): 1.5 mg/dL | ALANINE AMINOTRANSFERASE ([…], time 14 day): 84.2 u/L | ALBUMIN ([…], time 14 day): 4.12 G/DL | ALKALINE PHOSPHATASE ([…], time 14 day): 230.4 u/L | ASPARTATE AMINOTRANSFERASE ([…], time 14 day): 95.6 u/L | BLOOD UREA NITROGEN ([…], time 14 day): 15.2 mg/dL | CARBON DIOXIDE ([…], time 14 day): 30.6 mmol/L | CHLORIDE ([…], time 14 day): 104 MEQ/L | CHOLESTEROL ([…], time 14 day): 129.2 mg/dL | CREATINE PHOSPHOKINASE ([…], time 14 day): 256 u/L | CREATININE ([…], time 14 day): 0.54 mg/dL | GLUCOSE ([…], time 14 day): 144.8 mg/dL | LACTATE DEHYDROGENASE ([…], time 14 day): 59 u/L | LIPASE ([…], time 14 day): 22.2 u/L | PHOSPHORUS ([…], time 14 day): 11.14 mg/dL | POTASSIUM ([…], time 14 day): 6.2 MEQ/L | SODIUM ([…], time 14 day): 149.8 MEQ/L | TOTAL BILIRUBIN ([…], time 14 day): 0.42 mg/dL | TOTAL PROTEIN ([…], time 14 day): 6.66 G/DL | URIC ACID ([…], time 14 day): 1.5 mg/dL
